Test results reported in PMC11398567, “Structures of Native Doublet Microtubules from Trichomonas vaginalis Reveal Parasite-Specific Proteins as Potential Drug Targets” (Research Square, 2024).

Target: T1, TvFAP40 (Trichomonas vaginalis, UniProt A2DSS2)
T1 construct: gene TVAG_347810; native full-length protein in doublet microtubules isolated from parasite flagella; C-terminal residue Tyr377; head domain 1-145, coiled-coil tail 149-361; ligand in head domain
T1 sequence (A2DSS2 1-377): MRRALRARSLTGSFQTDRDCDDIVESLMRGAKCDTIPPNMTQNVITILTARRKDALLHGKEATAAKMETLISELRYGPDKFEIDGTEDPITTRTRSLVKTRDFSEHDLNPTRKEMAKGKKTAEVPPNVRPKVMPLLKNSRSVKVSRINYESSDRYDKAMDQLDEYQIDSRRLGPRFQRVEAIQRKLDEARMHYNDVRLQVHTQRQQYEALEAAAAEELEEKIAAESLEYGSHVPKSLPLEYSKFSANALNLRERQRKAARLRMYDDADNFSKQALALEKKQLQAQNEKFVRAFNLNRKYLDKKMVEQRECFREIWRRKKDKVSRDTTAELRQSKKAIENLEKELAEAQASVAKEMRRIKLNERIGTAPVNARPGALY
Assay: cryo-EM structure of native doublet microtubules
Type: binding
Details: co-purified endogenous ligand, putatively assigned from map density; positively charged pocket of head domain; likely metal cation nearby
Excerpt: cryo-EM structure of native doublet microtubules on TvFAP40 | consistent with bonding to a non-planar six-membered ring.

## O=P(O)(O)O[C@H]1[C@H](OP(=O)(O)O)[C@@H](OP(=O)(O)O)[C@H](OP(=O)(O)O)[C@@H](OP(=O)(O)O)[C@H]1OP(=O)(O)O [IP6]
  cryo-EM structure of native doublet microtubules: consistent with bonding to a non-planar six-membered ring. Together these features suggested an inositol polyphosphate
